From US5968959A, “Method for the prevention and treatment of stunned myocardium” (Orion Corporation, priority 1998, dated 1999)
“Also recorded” adds a separate entry of the source. Each block holds one molecule with its values, some of them ahead of it.

Key:
[1] = molecular target: T1, SR Ca2+-ATPase in fast skeletal muscle SR vesicles (Cavia porcellus, UniProt H0UXI0); assay: Calcium uptake assay (fluo-3), fast skeletal muscle (psoas m.) SR vesicles, which lack phospholamban; assay type: biochemical, guinea pig; conditions: for activation at 100 µM: compound 100 μM
T1 construct: Their hearts or the psoas muscles were excised; from tissue; host or cells: guinea pig psoas muscle, SR vesicles
T1 sequence (H0UXI0 entry or part of it limits assumed): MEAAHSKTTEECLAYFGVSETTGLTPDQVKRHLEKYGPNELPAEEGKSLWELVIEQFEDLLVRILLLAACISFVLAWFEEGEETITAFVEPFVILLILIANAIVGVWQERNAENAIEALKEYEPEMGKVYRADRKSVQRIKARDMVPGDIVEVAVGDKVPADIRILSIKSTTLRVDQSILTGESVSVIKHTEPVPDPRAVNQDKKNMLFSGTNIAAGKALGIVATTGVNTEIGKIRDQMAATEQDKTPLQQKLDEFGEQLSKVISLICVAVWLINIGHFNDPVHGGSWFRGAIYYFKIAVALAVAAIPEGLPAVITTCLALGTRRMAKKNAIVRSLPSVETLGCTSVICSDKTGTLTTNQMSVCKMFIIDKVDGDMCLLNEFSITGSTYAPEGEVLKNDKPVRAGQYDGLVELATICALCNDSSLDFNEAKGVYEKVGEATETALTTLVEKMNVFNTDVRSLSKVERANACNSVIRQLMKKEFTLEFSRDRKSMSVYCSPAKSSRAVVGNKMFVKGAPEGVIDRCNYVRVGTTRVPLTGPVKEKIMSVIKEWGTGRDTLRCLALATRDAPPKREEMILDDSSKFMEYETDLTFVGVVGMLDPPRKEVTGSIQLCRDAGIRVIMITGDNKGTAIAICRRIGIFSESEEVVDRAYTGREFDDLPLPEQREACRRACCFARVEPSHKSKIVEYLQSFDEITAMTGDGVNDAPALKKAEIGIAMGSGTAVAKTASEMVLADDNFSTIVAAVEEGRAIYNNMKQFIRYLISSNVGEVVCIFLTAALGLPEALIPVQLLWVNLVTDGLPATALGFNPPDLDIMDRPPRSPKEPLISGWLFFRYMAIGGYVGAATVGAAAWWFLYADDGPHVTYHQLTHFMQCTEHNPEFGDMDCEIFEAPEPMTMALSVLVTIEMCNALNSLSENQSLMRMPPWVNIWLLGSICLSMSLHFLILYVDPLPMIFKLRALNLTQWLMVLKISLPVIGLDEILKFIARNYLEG
Description: (§1) Preparation of the SR-vesicles
(§2) Guinea pigs (10-12) were decapited. Their hearts or the psoas muscles were excised, washed in ice-cold 0.9% NaCl and cut into pieces in a buffer containing 20 mM Tris-maleate, 0.3 M sucrose, pH 7.0. Thereafter tissue pieces were homogenized with Polytron and further with Potter (10 strokes). The homogenate was centrifugated at 1000 g for 15 min at 4° C. The supernatant was collected and the pellet was resuspended into 5 ml of the buffer (20 mM Tris-maleate, 0.3 M sucrose, pH 7.0) and recentrifugated at 1000 g for 10 min at 4° C. The obtained supernatant was combined with the earlier collected supernatant and centrifugated once again at 10 000 g for 20 min at 4° C. The final supernatant was filtered into a bottle equipped with a magnetic stirrer. KCl was added to the filtered supernatant to achieve the final concentration of 0.6 M (at 4° C.). The obtained solution was centrifugated at 100 000 g for 60 min at 4° C. The pellet was suspended in 5 ml of the buffer containing 20 mM Tris-maleate, 0.3 M sucrose, pH 7.0 and centrifugated at 100 000 g for 60 min at 4° C. The obtained pellet was suspended in 5 ml of buffer containing 20 mM Tris-maleate, 0.3 M sucrose, 0.1 M KCl, pH 7.0 and stored at -80° C. until use. The protein concentration was also measured in order to standardise the separately prepared vesicle preparations.
(§3) In the calcium uptake assay, the fluorescent indicator, fluo-3 was used to detect the decrease of the extravesicular Ca^2+ -concentration, when the SR Ca^2+ ATPase was transferring Ca^2+ from the extravesicular space into the SR-vesicles.
(§4) The SR-vesicles obtained above (50 μg protein/ml) were pre-incubated with or without the test compound at 37° C. for 5 min in the assay buffer containing 40 mM imidazole, 95 mM KCl, 5 mM NaN3, 5 mM MgCl2, 0.5 mM EGTA, 5 mM potassium oxalate, 2 μM ruthenium red, 5 μM fluo-3, pH 7.0. The free calcium was adjusted to 0.1 μM or to 0.04 μM by CaCl2. The reaction was initiated by adding ATP (5 mM). The final reaction volume was 1.5 ml. The fluorescence of reaction mixture was measured for 3 min by using the excitation and emission wavelengths of 510 nm and 530 nm, respectively.
(§5) The experiments were carried out at 0.1 μM and 0.04 μM free calcium concentrations, respectively.

[2] = molecular target: T2, phospholamban inhibition of SR Ca2+-ATPase in cardiac muscle SR vesicles (Cavia porcellus, UniProt A0A286XLC6); assay: Calcium uptake assay (fluo-3), cardiac SR vesicles; assay type: biochemical, guinea pig; conditions: for activation at 100 µM: compound 100 μM
T2 construct: Their hearts or the psoas muscles were excised; from tissue; host or cells: guinea pig heart (ventricular myocardium), SR vesicles
T2 sequence (A0A286XLC6 1-52): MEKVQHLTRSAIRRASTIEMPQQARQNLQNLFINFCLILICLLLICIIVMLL
Description: as §1, §2, §3, §4, §5

[3] = molecular target: T3, PLB[1-36 a.a.] (36 amino acid N-terminal fragment of human phospholamban) (Homo sapiens, UniProt P26678); assay: Circular dichroism (CD) spectroscopy, binding to cytosolic part of phospholamban; conditions: FIG. 2
T3 construct: the pSer16/pThr17 doubly phosphorylated peptide was compared
T3 sequence (P26678 1-36): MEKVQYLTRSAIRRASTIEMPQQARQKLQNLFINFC
Description: (§6) Both the 36 amino acid N-terminal fragment of human phospholamban (PLB [1-36 a.a.]) and the 36 amino acid N-terminal fragment of double phosphorylated human phospholamban (PLB [1-36 a.a.](Ser16PO3 -, Thr17PO3 -)) were obtained by peptide synthesis. The peptides were purified by reverse phase HPLC, analysed for homogenity by mass spectrometry and were found pure at 97%. The peptides were lyophilized and then resuspended in water at the final concentration of 0.1 mM, for CD analysis. The pH of both solutions was between 3 and 4 and was not further adjusted. Compound of Example 1c was solved in water at a final concentration of 0.1 mM. The pH was adjusted at 7.2 by adding 1 N NaOH.
(§7) Circular dichroism spectra were acquired at 24° C. on samples of 100 μl. The spectra were recorded on a Jasco J-720 spectropolarimeter using a 1 mm path-length quartz cuvette. The band width was 1 nm, the sensitivity 20 mdeg, the step resolution 0.5 nm, the response time 0.5 sec, and the scan speed 20 nm/min (from 250 to 190 nm). The spectra were expressed in [θ]×10^-3 ×degrees×cm^2 ×dmol^-1.

[4] = system: PLB[1-36 a.a.](Ser16PO3-, Thr17PO3-); assay: Circular dichroism (CD) spectroscopy, binding to double phosphorylated phospholamban fragment; set-up: species or system human; conditions: double phosphorylated peptide; FIG. 2
Description: as §6, §7

[5] = system: isolated guinea-pig Langendorff heart; assay: Development of stunned myocardium in isolated Langendorff heart (ischemia-reperfusion); conditions: 10 μM in perfusion buffer; three 8 min global ischemia periods each followed by reperfusion; FIG. 3B
Description: Guinea-pigs of either sex weighing 300-400 g were used in the study. After the guinea-pig was sacrificed by a blow on the skull and decapitated the heart was rapidly excised. The heart was then rinsed in oxygenated perfusion buffer. A cannula was inserted into the aorta and secured with a ligature. Retrograde perfusion began as soon as the heart was placed in a thermostatically controlled moist chamber of the Langendorff apparatus. Modified Tyrode solution (37° C.), equilibrated in a thermostatically controlled bulb oxygenator with carbogen (95% O2 and 5% CO2) was used as a perfusion buffer. The composition of the Tyrode solution was (in mM): NaCl 135; MgCl2 ×6H2 O 1; KCl 5; CaCl2 ×2H2 O 2; NaHCO3 15; Na2 HPO4 ×2H2 O 1; glucose 10; pH 7.3-7.4. The experiments were carried out under constant pressure condition (50 mmHg). After a short prestabilization (10 min) a latex balloon attached through the stainless-steel cannula to a pressure transducer was carefully placed into the left ventricle through the left pulmonary vein and the left atrium. The latex balloon, the cannula and the chamber of the pressure transducer were filled with ethylene glycol/water (1:1) mixture avoiding any air-bubble. The isovolumetric left ventricular pressure was recorded through the pressure transducer. […]

[6] = 0.05 h, 0.1 μM free calcium, read-out: The stimulation (%) of Ca2+ uptake, A (ventricular myocardium vesicles)
[7] = 0.05 h, 0.04 μM free calcium, read-out: The stimulation (%) of Ca2+ uptake, B (fast skeletal muscle vesicles)

- activation at 20 µM ([1]; 0.05 h, compound 20 μM, 0.04 μM free calcium, read-out: The stimulation (%) of Ca2+ uptake, B (fast skeletal muscle vesicles)): 0%
SMILES: Cc1c(Cc2ccccc2)c(=O)oc2cc(OCc3noc(=O)[nH]3)cc(OCc3noc(=O)[nH]3)c12 [Example 3c, 3-Benzyl-5,7-bis[(2,5-dihydro-5-oxo-4H -1,2,4-oxadiazol-3-yl)-methoxy]-4-methyl-2H -1-benzopyran-2-one]

- activation at 100 µM [2, 6]: 42%
- activation at 100 µM [1, 7]: -6%
- Interaction with phosphorylated PLB[1-36 a.a.](Ser16PO3-, Thr17PO3-) by CD [4]: does not interact or interacts weakly
SMILES: Cc1c(Cc2ccccc2)c(=O)oc2cc(OCc3nnn[nH]3)cc(OCc3nnn[nH]3)c12 [Example 1c, 3-Benzyl-5,7-bis[(1H -tetrazol-5-yl)methoxy]-4-methyl-2H -1-benzopyran-2-one]
- Change in CD spectrum (α-helical contribution) of PLB[1-36 a.a.] after addition of compound ([3]; 50 μM each, water, room temperature): marked increase of α-helical contribution
- Interaction (complex formation) with PLB[1-36 a.a.] by CD ([3]; unphosphorylated peptide): forms a complex with PLB; also recorded: interacts with the cytosolic part of phospholamban

- Effect on the Ca2+ uptake rate into the cardiac muscle SR vesicles ([2]; 0.1, 1.0 and 10 μM, FIG. 1): accelerated the calcium uptake
- Effect on the calcium uptake into the SR vesicle prepared from the fast skeletal muscle ([1]; 0.1-10 μM): did not change the calcium uptake
- activation at 10 µM ([1]; 0.05 h, compound 10 μM, 0.04 μM free calcium, read-out: The stimulation (%) of Ca2+ uptake, B (fast skeletal muscle vesicles)): 0%
SMILES: Cc1c(Cc2ccccc2)c(=O)n(Cc2ccccc2)c2cc(OCc3nnn[nH]3)cc(OCc3nnn[nH]3)c12 [Example 8g, 5,7-Bis[(1H-tetrazol-5-yl)methoxy]-1,3-dibenzyl-4-methyl-2(1H)-quinolinone]
- Development of stunned myocardium (left ventricular systolic pressure) [5]: complete inhibition of the development of stunned myocardium; also recorded: completely inhibited the development of stunned myocardium

- activation at 100 µM [1, 7]: -1%
SMILES: O=c1oc2cc(OCc3nnn[nH]3)cc(OCc3nnn[nH]3)c2c2c1C(c1ccccc1)CCC2 (centres unmarked) [Example 2c, 7,8,9,10-Tetrahydro-1,3-bis[(1H -tetrazol-5-yl)methoxy]-7-phenyl-6H-dibenzo[b,d]pyran-6-one]

- activation at 100 µM [2, 6]: 5%
- activation at 100 µM [1, 7]: -17%
SMILES: Cc1c(CCc2ccccc2)c(=O)oc2cc(OCc3nnn[nH]3)cc(OCc3nnn[nH]3)c12 [Example 7c, 5,7-Bis[(1H-tetrazol-5-yl)methoxy]-4-methyl-3-(2-phenylethyl)-2H-1benzopyran-2-one]

- activation at 5 µM ([2]; 0.05 h, compound 5 μM, 0.1 μM free calcium, read-out: The stimulation (%) of Ca2+ uptake, A (ventricular myocardium vesicles)): 20%
SMILES: Cc1c(Cc2ccccc2)c(=O)n(Cc2ccccc2)c2cc(OCC(=O)NO)cc(OCC(=O)NO)c12 [Example 23, 5,7-Bis(hydroxyaminocarbonylmethoxy)-1,3-dibenzyl-4-methyl-2(1H)-quinolinone]
